These results are taken from PMC5923171, “Novel Zinc-Attenuating Compounds as Potent Broad-Spectrum Antifungal Agents with In Vitro and In Vivo Efficacy” (Antimicrobial Agents and Chemotherapy, 2018).

The subject of one assay is C. albicans SC5314. As to the kind of experiment: Time-kill assay. The class given is cell-based, Candida albicans. Conditions: 0.5 μg/ml AMB, 3.6 μg/ml ZAC989, 4.4 μg/ml EDTA, 4.2 μg/ml TPEN; up to 24 h. On the procedure: C. albicans SC5314 cells (10^5 CFU/ml) were incubated in 10 ml of RPMI medium at 30°C with gentle agitation (150 rpm) in the presence of EDTA (15 μM), TPEN (10 μM), ZAC989 (10 μM), or AMB (0.5 μM). At the desired time points (0, 3, 5.5, and 24 h), a 100-μl aliquot was removed for each test condition and serially diluted (10-fold) in saline (0.9% NaCl), and 30 μl of each dilution was plated on YPD agar plates. The colony count on each YPD plate was determined after incubation at 30°C for 48 h ([40]). C. albicans cells treated with DMSO (1%, vol/vol) served as a control.

For assay [1] the following is noted: cited from earlier work.
The nature of assay [2]: Potentiometric titration with MgCl2. The class given is binding. Particulars: DMSO-water (70:30, vol/vol).
In assay [3] the target is fungal plasma membrane H^+-ATPase (Saccharomyces cerevisiae, UniProt P05030). Nature of the assay: H+-ATPase-inhibitory activity. In kind it is biochemical.
The subject of assay [4] is C. parapsilosis ATCC 22019. Nature of the assay: Antifungal susceptibility testing (MIC). Conditions: Lodderomyces parapsilosis, ATCC22019; at least 50% growth inhibition, RPMI, 24 h, 34°C. In kind it is cell-based, Candida parapsilosis. The protocol: (§1) Antifungal susceptibility testing was carried out as described previously ([38], [39]), with a few modifications. Briefly, for each yeast or mold growth inhibition assay, frozen stocks of yeast cells or spores were diluted to a final concentration of 0.5 × 10^5 to 2.5 × 10^5 CFU/ml in sterile water. ZAC989, ZAC307, and ZAC623 were dissolved in DMSO to 10 mM stocks from which half-log serial dilutions were prepared. Growth assays were subsequently performed by pipetting 3 μl of compound dissolved in DMSO (giving a final concentration of 1.5% DMSO), 100 μl of cell-spore suspension, and 97 μl of 2× RPMI medium (20.8 g/liter of RPMI 1640 medium, 69.06 g/liter of morpholinepropanesulfonic acid [MOPS], 36 g/liter of glucose) into a microtiter plate that was incubated for 24 h (yeasts) or 48 to 72 h (molds) at 34°C. Fungal growth was determined spectrophotometrically by optical density reading of each well at a wavelength of 492 nm on a Victor X5 (Perkin-Elmer) plate reader. […] Standard errors between repeated experiments were generally below 5%. The growth effect of exogenous addition of various divalent metals was evaluated by performing the antifungal susceptibility assay in the presence of 5 μM ZAC989 or ZAC307 and with increasing concentrations (0.003 to 50 μM) of ZnSO4, CuSO4, (NH4)2Fe(SO4)2, MgCl2, and CaCl2.

In assay [5] the test system is Aspergillus flavus ATCC 15547. Nature of the assay: Antifungal susceptibility testing (MIC). Conditions: ATCC15547, no visible growth, 48 to 72 h, 34°C. In kind it is cell-based. On the procedure: as §1
Assay [6] has as its system Aspergillus fumigatus ATCC 13073. As to the kind of experiment: Antifungal susceptibility testing (MIC). In kind it is cell-based. Particulars: ATCC13073, no visible growth, 48 to 72 h, 34°C. The protocol: as §1
In assay [7] the test system is Aspergillus terreus At070. As to the kind of experiment: Antifungal susceptibility testing (MIC). The class given is cell-based. Particulars: no visible growth, 48 to 72 h, 34°C. On the procedure: as §1
Another assay deals with C. tropicalis Ct016. As to the kind of experiment: Antifungal susceptibility testing (MIC). In kind it is cell-based. Particulars: Candida tropicalis, at least 50% growth inhibition, RPMI, 24 h, 34°C. The protocol: as §1
Assay [8] relates to Mucor indicus ATCC MYA-4678. As to the kind of experiment: Antifungal susceptibility testing (MIC). In kind it is cell-based. Particulars: no visible growth, 48 to 72 h, 34°C. On the procedure: as §1
In assay [9] the test system is Rhizopus microsporus ATCC 66276. Nature of the assay: Antifungal susceptibility testing (MIC). The class given is cell-based. Conditions: ATCC66276, no visible growth, 48 to 72 h, 34°C. The protocol: as §1
The test system of assay [10] is Rhizopus oryzae ATCC 34965. Nature of the assay: Antifungal susceptibility testing (MIC). The class given is cell-based. Particulars: Rhizopus arrhizus, ATCC34965; no visible growth, 48 to 72 h, 34°C. On the procedure:
as §1

Assay [11] relates to wild-type A. fumigatus strain (AF14). As to the kind of experiment: Growth capacity in sRPMI zinc-limiting medium, 24-well plates. The class given is cell-based, Aspergillus fumigatus. Particulars: 75 μM compound, 44 h, 37°C. On the procedure: The ZACs inhibited these molds and mucorales isolates in a range from 0.4 μg/ml to 5.4 μg/ml (Table 3). To assess the capacity of the ZACs to inhibit A. fumigatus growth in the presence of zinc, 1-ml aliquots of sRPMI zinc-limiting medium (RPMI 1640 medium [R8755; Sigma] supplemented with 10 μM FeSO4·7H2O, 1 μM CuSO4·5H2O, and 1 μM MnCl2·H2O) or this medium supplemented with 2, 5, or 50 μM zinc were inoculated with 10^5 conidia of a wild-type A. fumigatus strain (AF14), dispensed in 24-well culture plates, and incubated in the presence of either ZAC307 or ZAC989 at a final concentration 21 μg/ml or 27 μg/ml (equivalent to 75 μM), respectively (Fig. 5A).
Growth capacity experiments with A. fumigatus strains AF14, AF54, AF48, AF732, and AF731 were performed in 24-well flat-bottomed tissue culture plates (35-3047; Falcon). A stock solution of 10 mM TPEN (P4413; Sigma) was prepared in pure ethanol. For these experiments, 5 mM stock solutions of ZAC307 and ZAC989 were prepared by dissolving each compound in 80% (vol/vol) ethanol. A 0.5 M stock solution of Na2EDTA·2H2O (1.08421.1000; Merck) was prepared in sterile water. […] To quantitate mycelial growth, each plate was scanned in an Agfa SnapScan 1236s scanner, and the intensity of the wells was quantified using the open-source image processing program Image J2. The data were represented and analyzed with Prism software 7.0.

Assay [12] deals with A. fumigatus AF48 (ΔzrfA ΔzrfB). The assay is described as above. In kind it is cell-based, Aspergillus fumigatus. Conditions: 75 μM compound, 44 h, 37°C. The protocol: (§2) Growth capacity experiments with A. fumigatus strains AF14, AF54, AF48, AF732, and AF731 were performed in 24-well flat-bottomed tissue culture plates (35-3047; Falcon). A stock solution of 10 mM TPEN (P4413; Sigma) was prepared in pure ethanol. For these experiments, 5 mM stock solutions of ZAC307 and ZAC989 were prepared by dissolving each compound in 80% (vol/vol) ethanol. A 0.5 M stock solution of Na2EDTA·2H2O (1.08421.1000; Merck) was prepared in sterile water. A 1× stock solution (10.4 g/liter) of RPMI 1640 medium (R8755; Sigma) supplemented with 10 μM FeSO4·7H2O, 1 μM CuSO4·5H2O, and 1 μM MnCl2·H2O (sRPMI) was prepared under aseptic conditions and used as standard culture medium. In each well, 1 ml of culture medium containing sRPMI medium, Tween 20, ethanol (or the specified compound dissolved in 80% ethanol), and 10^5 conidia was dispensed to achieve final concentrations of 0.7×, 0.05% (vol/vol), 1.2% (vol/vol), and 10^5 conidia/ml, respectively. Plates were incubated for 44 h at 37°C in a humid atmosphere. To quantitate mycelial growth, each plate was scanned in an Agfa SnapScan 1236s scanner, and the intensity of the wells was quantified using the open-source image processing program Image J2. The data were represented and analyzed with Prism software 7.0.

In assay [13] the test system is A. fumigatus AF54 (ΔzrfC). The assay is described as above. The class given is cell-based, Aspergillus fumigatus. Particulars: average, either with or without simultaneous exposure to ZAC307 or ZAC989. The protocol:
as §2

The structures appear in SMILES notation. ≈ marks a conversion by molar mass, not a printed value.

Chain of fungal plasma membrane H^+-ATPase (P05030 whole entry): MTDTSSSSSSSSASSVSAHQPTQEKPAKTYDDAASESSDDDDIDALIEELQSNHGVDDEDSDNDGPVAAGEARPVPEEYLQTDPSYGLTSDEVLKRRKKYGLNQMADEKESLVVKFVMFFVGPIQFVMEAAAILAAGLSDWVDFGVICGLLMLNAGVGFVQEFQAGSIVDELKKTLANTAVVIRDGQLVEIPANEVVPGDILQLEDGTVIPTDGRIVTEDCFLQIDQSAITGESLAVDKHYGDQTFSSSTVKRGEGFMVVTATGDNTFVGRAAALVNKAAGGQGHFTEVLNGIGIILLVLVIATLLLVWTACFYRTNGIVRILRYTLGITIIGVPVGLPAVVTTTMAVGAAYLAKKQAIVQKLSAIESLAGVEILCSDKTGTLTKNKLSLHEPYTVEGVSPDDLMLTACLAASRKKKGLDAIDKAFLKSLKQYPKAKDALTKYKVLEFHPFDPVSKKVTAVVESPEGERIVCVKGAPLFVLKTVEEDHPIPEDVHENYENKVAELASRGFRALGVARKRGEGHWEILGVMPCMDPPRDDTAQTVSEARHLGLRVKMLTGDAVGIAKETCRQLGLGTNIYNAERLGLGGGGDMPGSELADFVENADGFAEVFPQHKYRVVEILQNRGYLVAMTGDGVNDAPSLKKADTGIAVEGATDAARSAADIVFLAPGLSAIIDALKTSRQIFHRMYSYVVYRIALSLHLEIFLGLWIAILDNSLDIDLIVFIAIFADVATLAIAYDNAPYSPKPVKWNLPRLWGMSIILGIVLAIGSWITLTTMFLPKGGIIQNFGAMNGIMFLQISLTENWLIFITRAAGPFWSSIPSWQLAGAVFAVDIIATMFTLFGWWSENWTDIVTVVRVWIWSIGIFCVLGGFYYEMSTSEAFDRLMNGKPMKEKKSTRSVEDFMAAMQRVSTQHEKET

`O=C(O)CN(CCN(CC(=O)O)CC(=O)O)CC(=O)O` [EDTA]: in the assay on C. albicans SC5314, the “time-kill activity (fungistatic or fungicidal)” value was “fungistatic effect within the first 24 h of exposure”. Besides, the “zinc chelation (in words)” value in [1] was “very potent zinc chelators”.
With `c1ccc(CN(CCN(Cc2ccccn2)Cc2ccccn2)Cc2ccccn2)nc1` [TPEN, N,N,N’,N’-tetrakis(2-pyridylmethyl)-ethylenediamine], in the assay with C. albicans SC5314, the “time-kill activity (fungistatic or fungicidal)” value is “fungistatic effect within the first 24 h of exposure”. Besides, in [1], the “zinc chelation (in words)” value is recorded as “very potent zinc chelators”.
What is called MIC is the lowest concentration that inhibits growth of the organism. Turning to `CN(C)c1cc(-n2nc(-c3ccccc3)cc2O)ncn1` [ZAC307, 2-[6-(dimethylamino)pyrimidin-4-yl]-5-phenyl-pyrazol-3-ol], in assay [2], the “Mg^2+ binding” value is “negligible”. Besides, the “H^+-ATPase-inhibitory activity” value in assay [3] was “lacked H^+-ATPase-inhibitory activity”. Besides, the minimal inhibitory concentration (MIC) in assay [4] worked out at 0.4 µg/mL (≈ 1.42 µM); in [5], 1.3 µg/mL (≈ 4.62 µM); in [6] it was 4 µg/mL (≈ 14.2 µM); in [7], 1.3 µg/mL (≈ 4.62 µM); with C. tropicalis Ct016, 0.4 µg/mL (≈ 1.42 µM); in [8] it was 1.3 µg/mL (≈ 4.62 µM). The results for the MIC in [9] and in [10] were 0.4 µg/mL (≈ 1.42 µM) and 1.3 µg/mL (≈ 4.62 µM), respectively. Besides, the entries for the “reduction of growth capacity, 2 μM zinc plus compound compared to 50 μM zinc” value in [11] and in [12] were 2.9 fold and 3.9 fold, respectively. In addition, the “reduction of growth capacity at 2 μM zinc compared to 50 μM zinc” value in assay [13] was found to be 24.6 fold.
Regarding `Cc1cc(O)n(-c2cc(N3CC[C@H](Oc4cnccc4C#N)C3)ncn2)n1` [ZAC989, 3-[(3S)-1-[6-(5-hydroxy-3-methyl-pyrazol-1-yl)pyrimidin-4-yl]pyrrolidin-3-yl]oxy-pyridine-4-carbonitrile], the “Mg^2+ binding” value in assay [2] is “negligible”. The “H^+-ATPase-inhibitory activity” value in [3] is given as “lacked H^+-ATPase-inhibitory activity”. Further, the MIC in [4] is 0.8 µg/mL (≈ 2.2 µM); in assay [5], 5.1 µg/mL (≈ 14 µM); in assay [6] it was 5.4 µg/mL (≈ 14.9 µM); in [7] it was 1.6 µg/mL (≈ 4.4 µM); against C. tropicalis Ct016, 0.9 µg/mL (≈ 2.48 µM); in assay [8], 1.1 µg/mL (≈ 3.03 µM). In addition, the MIC in assay [9] is 0.5 µg/mL (≈ 1.38 µM); in assay [10], 1.7 µg/mL (≈ 4.68 µM). Besides, the “reduction of growth capacity, 2 μM zinc plus compound compared to 50 μM zinc” value in assay [11] turned out to be 3.9 fold; in assay [12] it was 4.5 fold. In addition, the “reduction of growth capacity at 2 μM zinc compared to 50 μM zinc” value in assay [13] was found to be 24.6 fold.
